Like-named read-outs stand apart in the source and are kept apart here.
Tests used:
[1] = biological target: CYP3A4 (Homo sapiens (Human), UniProt P08684); test: Mechanism based inhibition of CYP3A4 assay (MBI 3A4); format: in vitro ADME; conditions: hydroxy-midazolam formation after 30 min vs 0 min preincubation, 25 uM, human liver microsomes
How it was run: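 Readout is hydroxy-midazolam formed after 30 min preincubation relative to 0 min, measured by LC/MS-MS after acetonitrile quench. Following preincubation, samples diluted 1:10 and incubated 15 min with midazolam substrate.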

[2] = biological target: KRAS (WT)::SOS1 (Homo sapiens (Human), UniProt P01116, C118S); test: KRAS::SOS1 AlphaScreen binding assay, KRAS WT
Chain of KRAS (WT)::SOS1 (P01116 other isoform, or with tags, fused parts or gaps C118S): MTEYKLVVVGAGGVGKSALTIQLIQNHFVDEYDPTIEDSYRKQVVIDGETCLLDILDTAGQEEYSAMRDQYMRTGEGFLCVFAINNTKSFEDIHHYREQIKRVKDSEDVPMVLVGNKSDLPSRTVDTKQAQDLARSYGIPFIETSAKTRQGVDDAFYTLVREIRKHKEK
How it was run: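 AlphaScreen measurement of compound disruption of biotinylated, GDP-loaded KRAS 1-169 (10 nM; G12C 7.5 nM) binding to GST-SOS1 564-1049 (5 nM with G12D/G12C, 10 nM otherwise), with 10 μM GDP in PBS/0.1% BSA/0.05% Tween 20. Timing was 30 min compound preincubation, then 60 min with beads at room temperature; top concentration 100 μM, 4-parameter IC50.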

[3] = tested on: MKN1 cells; test: MKN1 CTG proliferation assay (120 h) (gastric cancer, wt amplified); format: cell-based; conditions: Homo sapiens
How it was run: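 MKN1 gastric cancer cells (200–500 per well, RPMI + 10% FCS) given a logarithmic compound dose series and incubated 120 h. Viability by CellTiter-Glo luminescence as percent of DMSO controls. IC50 by four-parameter non-linear regression.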

[4] = MKN-1, assay 3, CTG 120 h, read-out: MKN1 (assay 3) IC50

Chain of CYP3A4 (P08684 whole entry): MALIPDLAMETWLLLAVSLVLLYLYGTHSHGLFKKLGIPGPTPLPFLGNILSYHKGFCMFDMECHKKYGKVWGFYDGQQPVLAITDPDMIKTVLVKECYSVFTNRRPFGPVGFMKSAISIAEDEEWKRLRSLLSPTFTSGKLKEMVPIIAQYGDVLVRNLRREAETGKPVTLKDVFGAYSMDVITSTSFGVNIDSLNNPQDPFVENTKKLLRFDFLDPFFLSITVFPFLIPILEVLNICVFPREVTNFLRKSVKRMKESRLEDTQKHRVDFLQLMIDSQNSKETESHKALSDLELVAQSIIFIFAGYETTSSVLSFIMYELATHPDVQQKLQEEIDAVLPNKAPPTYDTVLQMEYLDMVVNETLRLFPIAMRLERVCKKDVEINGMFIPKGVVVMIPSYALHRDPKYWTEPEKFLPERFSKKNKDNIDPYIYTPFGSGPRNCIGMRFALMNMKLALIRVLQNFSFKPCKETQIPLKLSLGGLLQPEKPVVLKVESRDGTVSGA

In the case of `C[C@H](Oc1cc(-n2ccnn2)nc(-c2onc3c2CCC[C@@]32CCCc3sc(N)c(C#N)c32)n1)[C@@H]1CCCN1C` [I-32], the “MBI 3A4” value [1] is reported as 41%.
In the case of `C[C@H](Oc1cc(N2CCN(C)C3(COC3)C2)nc(-c2noc3c2CCC[C@@]32CCCc3sc(N)c(C#N)c32)n1)[C@@H]1CCCN1C` [II-13], the IC50 [2] is reported as 3 nM and the “MBI 3A4” value [1] is reported as 70%.
With `Cc1nc(-c2cc(O[C@@H](C)[C@@H]3CCCN3C)nc(-c3onc4c3CCC[C@@]43CCCc4sc(N)c(C#N)c43)n2)cs1` [I-24] the “MBI 3A4” value [1] was 73%.
`CN[C@H]1CCN(c2cc(O[C@@H](C)[C@@H]3CCCN3C)nc(-c3noc4c3CCC[C@@]43CCCc4sc(N)c(C#N)c43)n2)C1` [II-35] gave an IC50 [2] of 13 nM.
For `C[C@H](Oc1cc(-c2ccn(CC(C)(C)O)n2)nc(-c2onc3c2CCC[C@@]32CCCc3sc(N)c(C#N)c32)n1)[C@@H]1CCCN1C` [I-26], the “MBI 3A4” value [1] was 71%.
Molecule `C[C@H](Oc1cc(N2CCNCC2)nc(-c2noc3c2CCC[C@@]32CCCc3sc(N)c(C#N)c32)n1)[C@@H]1CCCN1C` [II-45] has an IC50 [3, 4] of 1480 nM.
Molecule `C[C@@H]1CN(c2cc(O[C@@H](C)[C@@H]3C[C@@H](F)CN3C)nc(-c3noc4c3CCC[C@@]43CCCc4sc(N)c(C#N)c43)n2)CC2(CC2)N1` [II-17] has an IC50 [2] of 5 nM.
With `CCOC(=O)c1ccn(-c2cc(O[C@@H](C)[C@@H]3CCCN3C)nc(-c3noc4c3CCC[C@@]43CCCc4sc(N)c(C#N)c43)n2)n1` [II-23] the IC50 [3, 4] was 172 nM.
`C[C@H](Oc1nc(-c2onc3c2CCC[C@@]32CCCc3sc(N)c(C#N)c32)cc(N2CCNC3(CC3)C2)n1)[C@@H]1CCCN1C` [I-2] was tested, and the IC50 [2] was 42 nM and the “MBI 3A4” value [1] was 36%.
In the case of `C[C@H](O)Cn1ccc(-c2cc(O[C@@H](C)[C@@H]3CCCN3C)nc(-c3onc4c3CCC[C@@]43CCCc4sc(N)c(C#N)c43)n2)n1` [I-31], the “MBI 3A4” value [1] is reported as 67%.
For `C[C@H](Oc1cc(-n2ccc(C(=O)NC3(C)COC3)n2)nc(-c2noc3c2CCC[C@@]32CCCc3sc(N)c(C#N)c32)n1)[C@@H]1CCCN1C` [II-26], the IC50 [2] was 3 nM and the “MBI 3A4” value [1] was 58%.
Work on `C[C@H](Oc1cc(N2C[C@@H](N(C)C)[C@@H](F)C2)nc(-c2noc3c2CCC[C@@]32CCCc3sc(N)c(C#N)c32)n1)[C@@H]1CCCN1C` [II-11] yielded an IC50 [2] of 4 nM.
With `CO[C@H]1CCN(C)[C@@H]1[C@H](C)Oc1cc(-n2ccc(C(=O)N[C@H]3CCOC3)n2)nc(-c2onc3c2CCC[C@@]32CCCc3sc(N)c(C#N)c32)n1` [I-54] the IC50 [3, 4] was 26 nM.
In the case of `C[C@H](Oc1cc(N2CC[C@H](N3CCCC3)C2)nc(-c2noc3c2CCC[C@@]32CCCc3sc(N)c(C#N)c32)n1)[C@@H]1CCCN1C` [II-14], the IC50 [2] is reported as 15 nM and the “MBI 3A4” value [1] is reported as 83%.
For `C[C@H](Oc1cc(-c2ccn3ncnc3c2)nc(-c2onc3c2CCC[C@@]32CCCc3sc(N)c(C#N)c32)n1)[C@@H]1CCCN1C` [I-33], the “MBI 3A4” value [1] was 73%.
`C[C@H](Oc1cc(-n2ccc(C(=O)N3CCCC3)n2)nc(-c2noc3c2CCC[C@@]32CCCc3sc(N)c(C#N)c32)n1)[C@@H]1CCCN1C` [II-19] showed an IC50 [3, 4] of 47 nM.
`C[C@H](Oc1cc(-n2ccnc2)nc(-c2onc3c2CCC[C@@]32CCCc3sc(N)c(C#N)c32)n1)[C@@H]1CCCN1C` [I-20] was tested, and the “MBI 3A4” value [1] was 85%.
`C[C@H](Oc1cc(Cl)nc(-c2onc3c2CCC[C@@]32CCCc3sc(N)c(C#N)c32)n1)[C@@H]1CCCN1C` [I-1] was tested, and the IC50 [3, 4] was 1730 nM.
For `C[C@H](Oc1cc(N2C[C@H](C)N(C)[C@@H](C)C2)nc(-c2onc3c2CCC[C@@]32CCCc3sc(N)c(C#N)c32)n1)[C@@H]1CCCN1C` [I-43], the “MBI 3A4” value [1] was 64%.
`C[C@H](Oc1cc([C@@H]2CCN(C)C2)nc(-c2noc3c2CCC[C@@]32CCCc3sc(N)c(C#N)c32)n1)[C@@H]1CCCN1C` [II-37] was tested, and the “MBI 3A4” value [1] was 81%.
For `CO[C@@H]1C[C@@H]([C@H](C)Oc2cc(N3CCN(C)C4(CC4)C3)nc(-c3onc4c3CCC[C@@]43CCCc4sc(N)c(C#N)c43)n2)N(C)C1` [I-50], the IC50 ([3]; MKN-1, assay 2, CTG 120 h, read-out: MKN1 (assay 2) IC50) was 785 nM and the IC50 [3, 4] was 627 nM.
Molecule `C[C@H](Oc1cc(-n2ccc(C(=O)N[C@H]3CCOC3)n2)nc(-c2onc3c2CCC[C@@]32CCCc3sc(N)c(C#N)c32)n1)[C@@H]1CCCN1C` [I-57] has an IC50 [3, 4] of 19 nM.
In the case of `CO[C@H]1CCN(C)[C@@H]1[C@H](C)Oc1cc(-n2ccc(CC(=O)NC(C)C)n2)nc(-c2onc3c2CCC[C@@]32CCCc3sc(N)c(C#N)c32)n1` [I-48], the IC50 [3, 4] is reported as 17 nM.
With `COCCNC(=O)c1ccn(-c2cc(O[C@@H](C)[C@@H]3[C@@H](OC)CCN3C)nc(-c3onc4c3CCC[C@@]43CCCc4sc(N)c(C#N)c43)n2)n1` [I-55] the IC50 [3, 4] was 39 nM.

From patent publication US20240174690A1, “ANNULATED 2-AMINO-3-CYANO THIOPHENES AND DERIVATIVES FOR THE TREATMENT OF CANCER” (BOEHRINGER INGELHEIM INTERNATIONAL GMBH, priority 2021, published 2024)
